Paper PMC5613016, “GRL-09510, a Unique P2-Crown-Tetrahydrofuranylurethane -Containing HIV-1 Protease Inhibitor, Maintains Its Favorable Antiviral Activity against Highly-Drug-Resistant HIV-1 Variants in vitro” (Scientific Reports, 2017)

Key:
Assay type in all cases: cell-based
[1] = test system: HIV-1NL4-3; test: In vitro selection of resistant HIV-1 variants in MT-4 cells; details: HIV-1NL4-3 in MT-4 cells, increasing concentrations
Text: MT-4 cells (10^5/ml) were exposed to HIV-1NL4-3 (500 TCID50) and cultured in the presence of compounds at an initial concentration of its EC50 value. Viral replication was monitored by the determination of the amount of p24 produced by MT-4 cells. The supernatants were harvested on day 7 and were used to infect fresh MT-4 cells for the next round of culture in the presence of increasing concentrations of each compound. Proviral DNAs obtained from the lysates of infected cells were subjected to sequencing. This selection procedure was carried out until the drug concentration reached 5 μM as previously described[20]–[22]).

[2] = test system: HIV-1APV ^R 5μM; test: p24 production inhibition in MT-4 cells
Method: (§1) The susceptibility of HIV-1LAI or HIV-2ROD to various compounds was determined as previously described[20]–[22]. Briefly, MT-2 cells (10^4/ml) were exposed to 100 TCID50 of HIV-1LAI or HIV-2ROD in the presence or absence of various concentrations of compounds in 96-well plates and were incubated at 37 °C for 7 days. After incubation, 100 μl of the medium was removed from each well, 3-(4,5-dimetylthiazol-2-yl)-2,5-diphenyltetrazolium bromide (MTT) solution (10 μl, 7.5 mg/ml in PBS) was added to each well, followed by incubation at 37 °C for 2 h. […] To determine the sensitivity of clinically isolated HIV-1s to compounds, PHA-PBMC (10^6/ml) were exposed to 50 TCID50 of each HIV-1 and cultured in the presence or absence of various concentrations of compounds in 10-fold serial dilutions in 96-well plates. In determining the drug-susceptibility of certain laboratory HIV-1 strains, MT-4 cells were employed as target cells as previously described[23],[24]. MT-4 cells (10^5/ml) were exposed to 100 TCID50 of drug-resistant HIV-1s in the presence or absence of various concentrations of compounds and were incubated at 37 °C. On day 7, the supernatants were harvested and the amounts of p24 were determined by using a fully-automated chemiluminescent enzyme immunoassay system (Lumipulse f: Fujirebio, Tokyo)[35]–[37]. […] All assays were performed in duplicate, and EC50 shown in this report represent average values of two to four independent experiments. PHA-PBMCs were derived from a single donor in each independent experiment. The research protocols described in the present study were carried out in accordance with relevant guidelines and regulations, and were approved in Ethics Committee for Epidemiological and General Research at the Faculty of Life Sciences, Kumamoto University.

[3] = test system: HIV-1ATV ^R 5μM; test: p24 production inhibition in MT-4 cells
Method: as §1

[4] = test system: HIV-1LPV ^R 5μM; test: p24 production inhibition in MT-4 cells
Method: as §1

[5] = test system: HIV-1NL4-3; test: p24 production inhibition in MT-4 cells; details: MT-4 cells, p24 Gag production, Table 3
Method: as §1

[6] = test system: HIV-2ROD; test: microbe, parasite or virus in culture
Method: as §1

[7] = test system: HIV-1LAI; test: microbe, parasite or virus in culture
Method: as §1

[8] = test system: HIV-1MDR/C; test: p24 production inhibition in PHA-PBMC
Method: as §1

[9] = test system: HIV-1MDRmix DRV ^R 20P; test: p24 production inhibition in PHA-PBMC
Method: as §1

[10] = test system: HIV-1MDR/TM; test: p24 production inhibition in PHA-PBMC
Method: as §1

[11] = test system: HIV-1MDR/G; test: p24 production inhibition in PHA-PBMC
Method: as §1

[12] = test system: HIV-1MDR/B; test: p24 production inhibition in PHA-PBMC
Method: as §1

[13] = test system: HIV-1ERS104pre (wild-type); test: p24 production inhibition in PHA-PBMC; details: PHA-PBMC, p24 Gag production
Method: as §1

[14] = test system: MT-2 cells; test: Cytotoxicity against MT-2 cells (MTT assay)
Method: as §1

[15] = number in parentheses, compared to HIV-1NL4-3
[16] = compared to EC50 for HIV-1ERS104pre

`COc1ccc(S(=O)(=O)N(CC(C)C)CC(O)C(Cc2ccccc2)NC(=O)OC2C3COC4OCC2C4C3)cc1` (stereo not drawn) [GRL-09610] was tested. Which “passage at which selection concentration reached 5 µM” value [1] did it give?
The value was roughly 43.

And the “fold change of EC50 HIV-1APV ^R 5μM” value [2, 15]?
Its value is 97.

What about the EC50 ([2]; read-out: EC50 HIV-1APV ^R 5μM, MT-4 cells, p24 Gag production) of the same compound?
The EC50 was 310 ± 90 nM.

And the “fold change of EC50 HIV-1ATV ^R 5μM” value [3, 15]?
Its value is 11.

What about the EC50 ([3]; read-out: EC50 HIV-1ATV ^R 5μM, MT-4 cells, p24 Gag production) of the same compound?
Its EC50 is 35.4 ± 0.8 nM.

What about the “fold change of EC50 HIV-1LPV ^R 5μM” value [4, 15] of the same compound?
The value was 10.

And the EC50 ([4]; read-out: EC50 HIV-1LPV ^R 5μM, MT-4 cells, p24 Gag production)?
The EC50 was 32 ± 1 nM.

What about the EC50 [5] of the same compound?
The EC50 was 3.2 ± 0.2 nM.

What about the EC50 ([6]; MT-2 cells, 100 TCID50, MTT assay, read-out: EC50 Against HIV-2ROD) of the same compound?
The EC50 was 15 ± 9 nM.

And the “Selectivity Index (CC50/EC50) MT2/HIV-2ROD” value ([6]; ratio of CC50 to EC50 against HIV-2ROD)?
Its value is 2,207.

What about the EC50 ([7]; MT-2 cells, 100 TCID50, MTT assay, read-out: EC50 Against HIV-1LAI) of the same compound?
Its EC50 is 2.3 ± 0.7 nM.

What about the “Selectivity Index (CC50/EC50) MT2/HIV-1LAI” value ([7]; ratio of CC50 to EC50 against HIV-1LAI) of the same compound?
Its value is 14,391.

And the EC50 ([8]; PHA-PBMC, p24 Gag production)?
The EC50 was 4.9 ± 1.8 nM.

What about the “fold change of EC50 HIV-1MDR/C” value [8, 16] of the same compound?
Its value is 2.

What about the “fold change of EC50 HIV-1MDRmix DRV ^R 20P” value [9, 16] of the same compound?
The value was 78.

And the EC50 ([9]; read-out: EC50 HIV-1MDRmix DRV ^R 20P, PHA-PBMC, p24 Gag production)?
Its EC50 is 250 ± 30 nM.

And the EC50 ([10]; PHA-PBMC, p24 Gag production)?
Its EC50 is 28.9 ± 1.6 nM.

And the “fold change of EC50 HIV-1MDR/TM” value [10, 16]?
The value was 9.

What about the EC50 ([11]; PHA-PBMC, p24 Gag production) of the same compound?
Its EC50 is 15.8 ± 13.3 nM.

What about the “fold change of EC50 HIV-1MDR/G” value [11, 16] of the same compound?
Its value is 5.

What about the EC50 ([12]; PHA-PBMC, p24 Gag production) of the same compound?
The EC50 was 14.5 ± 1.3 nM.

What about the “fold change of EC50 HIV-1MDR/B” value [12, 16] of the same compound?
Its value is 5.

What about the EC50 [13] of the same compound?
The EC50 was 3.2 ± 0.2 nM.

What about the CC50 [14] of the same compound?
The CC50 was 33100 ± 1000 nM.
